From PubChem BioAssay AID1918991 (Molecular Pharmacology Branch, DTP, NCI, 2023)

Tested on: 186277-243-T-J2-PDC complex spheroid growth
Experiment: Anticancer human tumor 186277-243-T-J2-PDC patient-derived colon adenocarcinoma cell line growth inhibition [AhR]
Conditions: for IC50: curve of first compound; for viability, T/C: stronger effect = lower value
Method in brief: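 Spheroids combined tumor cells with HUVEC endothelial cells and human MSCs as stroma. AhR antagonists were paired with standard or investigational drugs, each dosed in half-log steps down from near clinical Cmax, or from 10 microM where Cmax was unknown.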
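Also: spheroids exposed to compounds for seven days before the viability read.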
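For viability, T/C in this document: luminescent signal used as a stand-in for viable cell amount; 100% = DMSO vehicle control wells.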

O=C(C=Cn1cnc(-c2cc(C(F)(F)F)cc(C(F)(F)F)c2)n1)NNc1cnccn1 + Cc1cncc(-c2nc(NCCc3c[nH]c4ccccc34)c3ncn(C(C)C)c3n2)c1
IC50 (second compound 0.1 µM): 430 nM
IC50 (second compound 0.316 µM): 456 nM
IC50 (second compound 1 µM): 482 nM
IC50 (second compound 3.16 µM): 380 nM
IC50 (second compound 10 µM): 40.4 nM
viability, T/C (second compound 0.1 µM, first compound 0.00949 µM): 103%
viability, T/C (second compound 0.1 µM, first compound 0.03 µM): 111%
viability, T/C (second compound 0.1 µM, first compound 0.0949 µM): 114%
viability, T/C (second compound 0.1 µM, first compound 0.3 µM): 67.2%
viability, T/C (second compound 0.1 µM, first compound 0.949 µM): 13.3%
viability, T/C (second compound 0.1 µM, first compound 3 µM): 4.12%
viability, T/C (second compound 0.316 µM, first compound 0.00949 µM): 110%
viability, T/C (second compound 0.316 µM, first compound 0.03 µM): 105%
viability, T/C (second compound 0.316 µM, first compound 0.0949 µM): 124%
viability, T/C (second compound 0.316 µM, first compound 0.3 µM): 73.2%
viability, T/C (second compound 0.316 µM, first compound 0.949 µM): 13.6%
viability, T/C (second compound 0.316 µM, first compound 3 µM): 4.58%
viability, T/C (second compound 1 µM, first compound 0.00949 µM): 109%
viability, T/C (second compound 1 µM, first compound 0.03 µM): 123%
viability, T/C (second compound 1 µM, first compound 0.0949 µM): 123%
viability, T/C (second compound 1 µM, first compound 0.3 µM): 75.2%
viability, T/C (second compound 1 µM, first compound 0.949 µM): 15.4%
viability, T/C (second compound 1 µM, first compound 3 µM): 5.33%
viability, T/C (second compound 3.16 µM, first compound 0.00949 µM): 117%
viability, T/C (second compound 3.16 µM, first compound 0.03 µM): 116%
viability, T/C (second compound 3.16 µM, first compound 0.0949 µM): 127%
viability, T/C (second compound 3.16 µM, first compound 0.3 µM): 60.1%
viability, T/C (second compound 3.16 µM, first compound 0.949 µM): 15.1%
viability, T/C (second compound 3.16 µM, first compound 3 µM): 6.75%
viability, T/C (second compound 10 µM, first compound 0.00949 µM): 67.5%
viability, T/C (second compound 10 µM, first compound 0.03 µM): 60.2%
viability, T/C (second compound 10 µM, first compound 0.0949 µM): 21.6%
viability, T/C (second compound 10 µM, first compound 0.3 µM): 7.78%
viability, T/C (second compound 10 µM, first compound 0.949 µM): 3.76%
viability, T/C (second compound 10 µM, first compound 3 µM): 3.02%
